Assay results from patent US20160281133A1, “STABILIZATION AND ISOLATION OF EXTRACELLULAR NUCLEIC ACIDS” (QIAGEN GMBH, priority 2013, published 2016).
pIC50, pKi: −log10 of the molar value. Counter-ions that a name gives are not always drawn. Where a SMILES comes first, the peptide text is derived from it. The star is where a group is joined. Cbz = O=C(OCc1ccccc1)*

Columns and labels:
cells = details: even at extremely high concentrations; cited from earlier work
whole blood samples [1] = assay: 18S DNA duplex real time PCR assay, increase of DNA in plasma of stored blood, example 5; format: cell-based, human; details: 20 μM caspase inhibitor in whole blood; storage at RT
whole blood samples [2] = assay: DNA size distribution by chip gel electrophoresis (blood cell stability/DNA release); format: cell-based, human; details: 20 μM in 10 ml K2E blood; day 3 and day 7
Experimental: To separate the blood plasma from the whole blood, the blood samples were centrifuged for 15 min at 5000 rpm, and the obtained plasma samples were again centrifuged for 10 min at 16.000×g at 4° C.
The circulating, extracellular nucleic acids were purified from the obtained plasma samples using the QIAamp® Circulating NA Kit (QIAGEN, according to the handbook). In brief: • 10 ml sample input; • lysis: 1 ml Proteinase K and 8 ml Buffer ACL (QIAGEN) • binding: 18 ml Buffer ACB (QIAGEN) • wash-steps: unchanged and according to handbook • elution in 60 μl Buffer AVE (QIAGEN)
1.3.1 Measurement of the blood cell stability/DNA release by the determination of DNA size distribution using a chip gel electrophoresis (2100 Bioanalyzer; Agilent Technologies; Inc., USA) according to manufacturer's instruction (see handbook Agilent DNA 7500 and DNA 12000 Kit Guide), but 1.5 μl instead of 1 μl sample were transferred to the wells.
Each tested caspase inhibitor was added to whole blood samples (20 μM end concentration in 10 ml blood; blood was collected into Vacutainer K2E Tubes; BD). The whole blood sample was processed as described in section 1 (plasma preparation and nucleic acid isolation).
The eluted circulating cell-free DNA was separated by size using chip gel electrophoresis (for details on the method see above). […]

caspase-1 = molecular target: T1, caspase-1 (Homo sapiens, UniProt P29466); details: cited from earlier work
T1 sequence (P29466 120-297 limits assumed): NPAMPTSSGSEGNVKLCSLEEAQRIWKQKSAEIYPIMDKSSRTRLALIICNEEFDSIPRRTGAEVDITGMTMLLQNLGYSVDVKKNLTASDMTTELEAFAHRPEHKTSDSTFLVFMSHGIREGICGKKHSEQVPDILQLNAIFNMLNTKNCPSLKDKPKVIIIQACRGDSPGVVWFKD
T1 sequence (P29466 317-404 limits assumed): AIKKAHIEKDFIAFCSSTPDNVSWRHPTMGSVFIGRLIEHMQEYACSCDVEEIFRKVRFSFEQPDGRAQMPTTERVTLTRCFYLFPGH

white blood cells = assay: 18S rDNA qPCR (66 bp / 500 bp): release of genomic DNA into plasma of stored stabilized blood, examples 1-4; format: cell-based, human
Experimental: Blood from two different donors was collected into 10 ml K2 EDTA tubes (BD). 4.5 ml of the respectively collected blood was mixed with 0.9 ml of two different stabilization solutions A and B. Said stabilization solutions contained (per ml of stabilization solution):
A: 34.2 mg K2 EDTA and 0.15 g or 0.18 g butanamide in water When using stabilization solution A, the following final concentration in the blood/stabilization mixture was obtained: 7.2 mg K2 EDTA/ml and 2.5% (w/v) or 3% (w/v) butanamide. […] When using stabilization solution B, the following final concentration in the blood/stabilization mixture was obtained: 7.2 mg K2 EDTA/ml, 3% (w/v) butanamide and 1 μM Quinoline-Val-Asp-CH2-OPH (caspase inhibitor).
All stabilized blood samples were set up in triplicates per condition and test time point. At time point 0 (reference), immediately after mixing the stabilization solution and blood, plasma was generated and the circulating extracellular DNA was extracted. The residual stabilized blood sample was stored for three days and six days at room temperature.
Plasma was generated from the stabilized and unstabilized (EDTA) blood samples by inverting the blood containing tubes for four times. Then, the tubes were centrifuged for 10 minutes at 1900×g at 4° C. 2.5 ml of the plasma fraction was transferred into a fresh 15 ml falcon tube and centrifuged for 10 minutes at 16.000×g at 4° C. 2 ml of the respectively cleared plasma was used for extracellular nucleic acid isolation using the QIAamp circulating nucleic acid kit (QIAGEN) according to the manufacturer's instructions.
The isolated extracellular DNA was analyzed using two different qPCR assays, targeting different fragment lengths of the 18S ribosomal DNA:
18S ribosomal DNA: 66 bp amplicon 18S ribosomal DNA: 500 bp amplicon
Cycle threshholds of the individual samples were translated into amount of gDNA in the eluate, according to a gDNA standard curve. The gDNA amount of the storage time points was compared to the time zero gDNA level from the same donor and is shown as fold increase in the figures. […]

caspase-3 = molecular target: T2, caspase-3 (Homo sapiens, UniProt P42574); details: cited from earlier work
T2 sequence (P42574 29-175 limits assumed): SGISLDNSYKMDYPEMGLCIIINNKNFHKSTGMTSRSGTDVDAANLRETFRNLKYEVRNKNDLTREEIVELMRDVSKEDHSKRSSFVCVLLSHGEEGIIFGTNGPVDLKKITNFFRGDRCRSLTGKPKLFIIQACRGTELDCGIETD
T2 sequence (P42574 176-277 limits assumed): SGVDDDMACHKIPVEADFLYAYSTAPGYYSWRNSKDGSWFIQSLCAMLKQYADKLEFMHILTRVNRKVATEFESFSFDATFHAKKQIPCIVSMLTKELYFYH

[3] = molecular target: N-SMase (neutral sphingomyelinase); details: rat brain; cited from earlier work
MCF7 breast cancer cells = details: at 20 μM; cited from earlier work
calpain II = molecular target: T3, calpain II (Homo sapiens, UniProt P17655); details: cited from earlier work
T3 sequence (P17655 1-700): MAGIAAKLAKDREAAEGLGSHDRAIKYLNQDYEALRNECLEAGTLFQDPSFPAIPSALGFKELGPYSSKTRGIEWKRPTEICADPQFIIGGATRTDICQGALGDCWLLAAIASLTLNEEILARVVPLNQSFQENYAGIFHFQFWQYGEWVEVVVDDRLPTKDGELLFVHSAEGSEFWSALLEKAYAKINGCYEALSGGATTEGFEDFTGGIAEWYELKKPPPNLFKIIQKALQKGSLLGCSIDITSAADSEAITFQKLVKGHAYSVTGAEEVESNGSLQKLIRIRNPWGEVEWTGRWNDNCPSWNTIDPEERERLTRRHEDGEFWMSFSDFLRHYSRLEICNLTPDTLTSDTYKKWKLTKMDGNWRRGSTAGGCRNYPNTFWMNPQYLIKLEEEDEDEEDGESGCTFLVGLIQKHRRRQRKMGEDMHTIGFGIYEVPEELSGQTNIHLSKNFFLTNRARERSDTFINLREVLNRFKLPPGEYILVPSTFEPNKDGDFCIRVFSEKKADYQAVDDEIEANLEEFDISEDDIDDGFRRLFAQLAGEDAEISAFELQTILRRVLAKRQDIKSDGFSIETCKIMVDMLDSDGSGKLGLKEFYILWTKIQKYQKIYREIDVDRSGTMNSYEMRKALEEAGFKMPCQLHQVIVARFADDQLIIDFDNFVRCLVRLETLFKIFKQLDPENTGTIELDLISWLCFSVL
T3 sequence (P04632 1-268 partner): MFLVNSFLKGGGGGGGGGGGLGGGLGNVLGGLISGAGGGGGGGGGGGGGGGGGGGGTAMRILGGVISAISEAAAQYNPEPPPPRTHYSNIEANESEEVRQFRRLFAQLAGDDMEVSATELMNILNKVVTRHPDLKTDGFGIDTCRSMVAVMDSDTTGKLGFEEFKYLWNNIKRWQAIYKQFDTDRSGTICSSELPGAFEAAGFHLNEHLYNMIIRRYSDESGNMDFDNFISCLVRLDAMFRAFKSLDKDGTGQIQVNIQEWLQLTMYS

cathepsin L = cathepsin L (Homo sapiens, UniProt P07711); details: cited from earlier work
HeLa cell mitochondria = details: at 5 μM; cited from earlier work
[4] = in neuron culture medium at 37° C.; cited from earlier work

Sequence of cathepsin L (P07711 114-333, species assumed): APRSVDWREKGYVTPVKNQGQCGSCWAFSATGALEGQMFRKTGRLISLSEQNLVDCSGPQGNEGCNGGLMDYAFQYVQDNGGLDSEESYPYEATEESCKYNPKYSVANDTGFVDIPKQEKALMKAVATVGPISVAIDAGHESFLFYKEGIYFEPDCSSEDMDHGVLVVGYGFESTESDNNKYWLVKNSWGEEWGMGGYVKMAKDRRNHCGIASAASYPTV

Question: For CC(C)C(NC(=O)c1ccc2ccccc2n1)C(=O)NC(CC(=O)O)C(=O)COc1c(F)cccc1F (stereo not drawn) [Q-VD-OPh, Quinoline-Val-Asp-CH2-OPH], which toxicity to cells (cells) is on record?
Answer: not toxic to cells

Question: And the “increase of DNA from day 0 to day 3 or 7” value (whole blood samples [1])?
Answer: reduced increase of DNA

Question: What about the “ladder-like pattern of bands (release and fragmentation of genomic DNA) compared to controls” value (whole blood samples [2]) of the same compound?
Answer: significantly reduced ladder-like patterns

Question: With “Ac-Tyr-Val-Ala-Asp-CMK [Caspase-1 Inhibitor II]” as the compound, how does the pKi (caspase-1) read?
Answer: 9.12

Question: Which results are given for CCCC(N)=O [butanamide]?
Answer: stabilization capabilities compared to DMAA (white blood cells; Example 2, 2.5, 3, 3.5% (w/v) butanamide with 1 μM caspase inhibitor and EDTA vs 5% DMAA): at least comparable stabilization capabilities to DMAA; stabilization capabilities compared to the stabilization solution comprising DMAA (white blood cells; Example 3, 0.5, 1.5, 2% butanamide in combination with 2.5, 1.5, 1% DMPA, 1 μM caspase inhibitor, EDTA): comparable stabilization capabilities; increase in 18S rDNA (white blood cells; Example 4, 0.5, 1.5, 2.5% (w/v) butanamide with 1 μM caspase inhibitor and 7.2 mg K2EDTA/ml): significantly reduced increase in 18S rDNA

Question: With “Ac-Ala-Ala-Val-Ala-Leu-Leu-Pro-Ala-Val-Leu-Leu-Ala-Leu-Leu-Ala-Pro-Asp-Glu-Val-Asp-CHO (Ac-AAVALLPAVLLALLAPDEVD-aldehyde; SMILES CC(=O)N[C@@H](C)C(=O)N[C@@H](C)C(=O)N[C@H](C(=O)N[C@@H](C)C(=O)N[C@@H](CC(C)C)C(=O)N[C@@H](CC(C)C)C(=O)N1CCC[C@H]1C(=O)N[C@@H](C)C(=O)N[C@H](C(=O)N[C@@H](CC(C)C)C(=O)N[C@@H](CC(C)C)C(=O)N[C@@H](C)C(=O)N[C@@H](CC(C)C)C(=O)N[C@@H](CC(C)C)C(=O)N[C@@H](C)C(=O)N1CCC[C@H]1C(=O)N[C@@H](CC(=O)O)C(=O)N[C@@H](CCC(=O)O)C(=O)N[C@H](C(=O)N[C@H](C=O)CC(=O)O)C(C)C)C(C)C)C(C)C) [Caspase-3 Inhibitor I, Cell-Permeable]” as the compound, how does the pKi (caspase-3) read?
Answer: > 9.00

Question: With O=C(C=Cc1ccc(C=CC(=O)Nc2ccc(C3=NCCN3)cc2)cc1)Nc1ccc(C2=NCCN2)cc1 [GW 4869] as the compound, how does the pIC50 [3] read?
Answer: ~6.00

Question: What about the “protection against TNF-α or diamine-induced cell death” value (MCF7 breast cancer cells) of the same compound?
Answer: specific PLC. Reported to offer complete protection against TNF-α

Question: With CC(C)C(NC(=O)OCc1ccccc1)C(=O)NC(C=O)Cc1ccccc1 (stereo not drawn) [Calpain Inhibitor III, Z-Val-Phe-CHO] (Cbz-Val-Phe-aldehyde; configuration not given here) as the compound, how does the pKi (calpain II) read?
Answer: 8.10

Question: With “Ac-Ala-Ala-Val-Ala-Leu-Leu-Pro-Ala-Val-Leu-Leu-Ala-Leu-Leu-Ala-Pro-Tyr-Val-Ala-Asp-CHO (Ac-AAVALLPAVLLALLAPYVAD-aldehyde; SMILES CC(=O)N[C@@H](C)C(=O)N[C@@H](C)C(=O)N[C@H](C(=O)N[C@@H](C)C(=O)N[C@@H](CC(C)C)C(=O)N[C@@H](CC(C)C)C(=O)N1CCC[C@H]1C(=O)N[C@@H](C)C(=O)N[C@H](C(=O)N[C@@H](CC(C)C)C(=O)N[C@@H](CC(C)C)C(=O)N[C@@H](C)C(=O)N[C@@H](CC(C)C)C(=O)N[C@@H](CC(C)C)C(=O)N[C@@H](C)C(=O)N1CCC[C@H]1C(=O)N[C@@H](Cc1ccc(O)cc1)C(=O)N[C@H](C(=O)N[C@@H](C)C(=O)N[C@H](C=O)CC(=O)O)C(C)C)C(C)C)C(C)C) [Caspase-1 Inhibitor I, Cell-Permeable]” as the compound, how does the pKi (caspase-1) read?
Answer: 9.00

Question: Which k2 (calpain II; irreversible inhibitor) does the source give for CC(C)C[C@H](NC(=O)OCc1ccccc1)C(=O)N[C@@H](CC(C)C)C(=O)N[C@@H](Cc1ccc(O)cc1)C(=O)CF [Calpain Inhibitor IV, Z-Leu-Leu-Tyr-CH2F] (HELM PEPTIDE1{[O=C(OCc1ccccc1)[*:2]].L.L.Y.[FC[*:1]]}$$$$V2.0) here?
Answer: 28,900 M−1s−1). Also acts as an inhibitor of cathepsin L (k2 =

Question: And the k2 (cathepsin L)?
Answer: 680,000 M−1s−1).

Question: For OC(CN1CCNCC1)Cn1c2ccc(Br)cc2c2cc(Br)ccc21 (racemic) [Bax Channel Blocker, (±)-1-(3,6-Dibromocarbazol-9-yl)-3-piperazin-1-yl-propan-2-ol, bis TFA], which “inhibition of Bid-induced cytochrome c release” value (HeLa cell mitochondria) is on record?
Answer: cyctochrome c release from HeLa cell mitochondria (~80%

Question: With N=c1sc2c(n1CC(=O)c1ccc([N+](=O)[O-])cc1)CCCC2 [Pifithrin-α, p-Nitro] as the compound, how does the t½ [4] read?
Answer: biological systems (t½ = 8 h in neuron culture medium at 37° C.).
